Measured values taken from PubChem BioAssay (NCI).
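Five compound concentrations were applied to cells in 96-well plates for 48 hours; endpoints were derived by simple linear interpolation of the resulting dose-response curve. TGI marks complete inhibition of growth.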

What was measured:
Experiment in all cases: NCI anticancer screen, dose series, 48 h
OVCAR-5 ovarian = system: OVCAR-5 ovarian
BT-549 breast = system: BT-549 breast
HCC-2998 colon = system: HCC-2998 colon
OVCAR-8 ovarian = system: OVCAR-8 ovarian
SF-295 CNS = system: SF-295 CNS
MCF7 breast = system: MCF7 breast
NCI-H23 lung = system: NCI-H23 lung
NCI-H460 lung = system: NCI-H460 lung
LOX IMVI melanoma = system: LOX IMVI melanoma
UO-31 renal = system: UO-31 renal
KM12 colon = system: KM12 colon
M14 melanoma = system: M14 melanoma
NCI-H522 lung = system: NCI-H522 lung
CCRF-CEM leukemia = system: CCRF-CEM leukemia
MDA-N = system: MDA-N
ACHN renal = system: ACHN renal
OVCAR-3 ovarian = system: OVCAR-3 ovarian
PC-3 prostate = system: PC-3 prostate
HS 578T breast = system: HS 578T breast
HOP-92 NSCLC = system: HOP-92 NSCLC
SNB-75 CNS = system: SNB-75 CNS
SW-620 colon = system: SW-620 colon
SF-539 CNS = system: SF-539 CNS
NCI-H226 lung = system: NCI-H226 lung
SF-268 CNS = system: SF-268 CNS
T-47D breast = system: T-47D breast
SK-OV-3 ovarian = system: SK-OV-3 ovarian
MOLT-4 leukemia = system: MOLT-4 leukemia
OVCAR-4 ovarian = system: OVCAR-4 ovarian
CAKI-1 renal = system: CAKI-1 renal
SK-MEL-28 melanoma = system: SK-MEL-28 melanoma
UACC-62 melanoma = system: UACC-62 melanoma
MALME-3M melanoma = system: MALME-3M melanoma
SK-MEL-5 melanoma = system: SK-MEL-5 melanoma
HT29 colon = system: HT29 colon
EKVX NSCLC = system: EKVX NSCLC
IGROV1 ovarian = system: IGROV1 ovarian
UACC-257 melanoma = system: UACC-257 melanoma
HCT-116 colon = system: HCT-116 colon
TK-10 renal = system: TK-10 renal
MDA-MB-435 = system: MDA-MB-435
K-562 leukemia = system: K-562 leukemia
RXF 393 renal = system: RXF 393 renal
NCI/ADR-RES ovarian = system: NCI/ADR-RES ovarian
SN12C renal = system: SN12C renal
SNB-19 CNS = system: SNB-19 CNS
HOP-62 NSCLC = system: HOP-62 NSCLC
A549 NSCLC = system: A549 NSCLC
DU-145 prostate = system: DU-145 prostate
SK-MEL-2 melanoma = system: SK-MEL-2 melanoma
COLO 205 colon = system: COLO 205 colon
RPMI-8226 leukemia = system: RPMI-8226 leukemia
U251 CNS = system: U251 CNS
HL-60(TB) leukemia = system: HL-60(TB) leukemia
786-0 renal = system: 786-0 renal
MDA-MB-231 breast = system: MDA-MB-231 breast
HCT-15 colon = system: HCT-15 colon
SR leukemia = system: SR leukemia
A498 renal = system: A498 renal

SMILES: CC12CCC(C(=O)OC1=O)C(C)(C)O2 (centres undefined)
- TGI (OVCAR-5 ovarian): > 100 µM
- TGI (BT-549 breast): > 100 µM
- TGI (HCC-2998 colon): > 100 µM
- TGI (OVCAR-8 ovarian): > 100 µM
- TGI (SF-295 CNS): > 100 µM
- TGI (MCF7 breast): > 100 µM
- TGI (NCI-H23 lung): > 100 µM
- TGI (NCI-H460 lung): > 100 µM
- TGI (LOX IMVI melanoma): > 100 µM
- TGI (UO-31 renal): > 100 µM
- TGI (KM12 colon): > 100 µM
- TGI (M14 melanoma): > 100 µM
- TGI (NCI-H522 lung): > 100 µM
- TGI (CCRF-CEM leukemia): > 100 µM
- TGI (MDA-N): > 100 µM
- TGI (ACHN renal): > 100 µM
- TGI (OVCAR-3 ovarian): > 100 µM
- TGI (PC-3 prostate): > 100 µM
- TGI (HS 578T breast): > 100 µM
- TGI (HOP-92 NSCLC): > 100 µM
- TGI (SNB-75 CNS): > 100 µM
- TGI (SW-620 colon): > 100 µM
- TGI (SF-539 CNS): > 100 µM
- TGI (NCI-H226 lung): > 100 µM
- TGI (SF-268 CNS): > 100 µM
- TGI (T-47D breast): > 100 µM
- TGI (SK-OV-3 ovarian): > 100 µM
- TGI (MOLT-4 leukemia): > 100 µM
- TGI (OVCAR-4 ovarian): > 100 µM
- TGI (CAKI-1 renal): > 100 µM
- TGI (SK-MEL-28 melanoma): > 100 µM
- TGI (UACC-62 melanoma): > 100 µM
- TGI (MALME-3M melanoma): > 100 µM
- TGI (SK-MEL-5 melanoma): > 100 µM
- TGI (HT29 colon): > 100 µM
- TGI (EKVX NSCLC): > 100 µM
- TGI (IGROV1 ovarian): > 100 µM
- TGI (UACC-257 melanoma): > 100 µM
- TGI (HCT-116 colon): > 100 µM
- TGI (TK-10 renal): > 100 µM
- TGI (MDA-MB-435): > 100 µM
- TGI (K-562 leukemia): > 100 µM
- TGI (RXF 393 renal): > 100 µM
- TGI (NCI/ADR-RES ovarian): > 100 µM
- TGI (SN12C renal): > 100 µM
- TGI (SNB-19 CNS): > 100 µM
- TGI (HOP-62 NSCLC): > 100 µM
- TGI (A549 NSCLC): > 100 µM
- TGI (DU-145 prostate): > 100 µM
- TGI (SK-MEL-2 melanoma): > 100 µM
- TGI (COLO 205 colon): > 100 µM
- TGI (RPMI-8226 leukemia): > 100 µM
- TGI (U251 CNS): > 100 µM

SMILES: C1=NCCNCCN=Cc2ccc(cc2)OCc2cccc(n2)COc2ccc1cc2
- TGI (OVCAR-5 ovarian): > 100 µM
- TGI (HL-60(TB) leukemia): > 100 µM
- TGI (BT-549 breast): > 100 µM
- TGI (OVCAR-8 ovarian): > 100 µM
- TGI (SF-295 CNS): > 100 µM
- TGI (MCF7 breast): > 100 µM
- TGI (NCI-H23 lung): > 100 µM
- TGI (NCI-H460 lung): > 100 µM
- TGI (UO-31 renal): > 100 µM
- TGI (KM12 colon): > 100 µM
- TGI (M14 melanoma): > 100 µM
- TGI (786-0 renal): > 100 µM
- TGI (MDA-MB-231 breast): > 100 µM
- TGI (NCI-H522 lung): > 100 µM
- TGI (CCRF-CEM leukemia): > 100 µM
- TGI (MDA-N): > 100 µM
- TGI (ACHN renal): 68.7 µM
- TGI (OVCAR-3 ovarian): > 100 µM
- TGI (PC-3 prostate): > 100 µM
- TGI (HS 578T breast): > 100 µM
- TGI (HOP-92 NSCLC): > 100 µM
- TGI (SNB-75 CNS): > 100 µM
- TGI (SW-620 colon): > 100 µM
- TGI (HCT-15 colon): > 100 µM
- TGI (SF-539 CNS): > 100 µM
- TGI (NCI-H226 lung): > 100 µM
- TGI (SR leukemia): > 100 µM
- TGI (SF-268 CNS): 83.9 µM
- TGI (T-47D breast): > 100 µM
- TGI (SK-OV-3 ovarian): > 100 µM
- TGI (MOLT-4 leukemia): > 100 µM
- TGI (OVCAR-4 ovarian): > 100 µM
- TGI (CAKI-1 renal): > 100 µM
- TGI (SK-MEL-28 melanoma): > 100 µM
- TGI (UACC-62 melanoma): > 100 µM
- TGI (MALME-3M melanoma): > 100 µM
- TGI (SK-MEL-5 melanoma): > 100 µM
- TGI (HT29 colon): > 100 µM
- TGI (EKVX NSCLC): > 100 µM
- TGI (IGROV1 ovarian): > 100 µM
- TGI (UACC-257 melanoma): > 100 µM
- TGI (HCT-116 colon): > 100 µM
- TGI (MDA-MB-435): > 100 µM
- TGI (K-562 leukemia): > 100 µM
- TGI (A498 renal): > 100 µM
- TGI (RXF 393 renal): > 100 µM
- TGI (NCI/ADR-RES ovarian): > 100 µM
- TGI (SN12C renal): > 100 µM
- TGI (SNB-19 CNS): > 100 µM
- TGI (HOP-62 NSCLC): 52.9 µM
- TGI (A549 NSCLC): > 100 µM
- TGI (DU-145 prostate): > 100 µM
- TGI (SK-MEL-2 melanoma): > 100 µM
- TGI (COLO 205 colon): > 100 µM
- TGI (RPMI-8226 leukemia): > 100 µM
- TGI (U251 CNS): > 100 µM
